Results as given in patent publication US8975401B2, “Quinazoline based EGFR inhibitors containing a zinc binding moiety” (Curis, Inc., priority 2006, dated 2015).
Where two headings read alike, the source gives them in different places.

Key:
[1] = mouse, in vivo
Method: (§3) Samples were compared to standards made in plasma. These standards were prepared by serial dilution. An internal standard was added into the plasma with standard.
(§4) Tissues were homogenized in 0.8 ml water.

[2] = remark: listed apart in the source
Source text: B. Filtration of the Solution
C. Preparation of a Lyophilisate

cancer cell lines = test: Anti-proliferative activity in various cancer cell lines (general statements, FIG. 3); type: cell-based; details: lung, breast, prostate, colon, pancreas cell lines
Method: Cell Proliferation Assay:
Cancer cell lines were plated at 5,000 to 10,000 per well in 96-well flatted bottomed plates with various concentration of compounds. The cells were incubated with compounds for 72 hours in the presence of 0.5% of fetal bovine serum. Growth inhibition was accessed by adenosine triphosphate (ATP) content assay using Perkin Elmer ATPlite kit. ATPlite is an ATP monitoring system based on firefly luciferase. Briefly, 25 μl of mammalian cell lysis solution was added to 50 μl of phenol red-free culture medium per well to lyse the cells and stabilize the ATP. 25 μl of substrate solution was then added to the well and subsequently the luminescence was measured.

[3] = system: EGFR in MDA-MB-468 breast cancer cell line; test: Inhibition of EGFR phosphorylation in cells, FIG. 2; type: cell-based; details: MDA-MB-468, FIG. 2
Method: (b) An In Vitro Assay which Determines the Ability a Test Compound to Inhibit the EGF-Stimulated EGFR Phosphorylation.
Allowed A431 cell growth in a T75 flask using standard tissue culture procedures until cells reach near confluency (˜1.5×10^7) cells; D-MEM, 10% FBS). Under sterile conditions dispensed 100 μl of the cell suspension per well in 96-well microplates (x cells plated per well). Incubated cells and monitor cell density until confluency is achieved with well-to-well consistency; approximately three days. Removed complete media from plate wells by aspiration or manual displacement. Replaced media with 50 μl of pre-warmed serum free media per well and incubated 4 to 16 hours. Made two fold serial dilutions of inhibitor using pre-warmed D-MEM so that the final concentration of inhibitor range from 10 μM to […]. Removed media from A431 cell plate. Added 100 μl of serial diluted inhibitor into cells and incubate 1 to 2 hours. Removed inhibitor from plate wells by aspiration or manual displacement. Added either serum free media for resting cells (mock) or serum free media with 100 ng/ml EGF. Used 100 μl of resting/activation media per well. Allowed incubation at 37° C. for 7.5 minutes. Removed activation or stimulation media manually or by aspiration. Immediately fixed cells with 4% formaldehyde in 1×PBS. […]

[4] = system: HDAC in MDA-MB-468 breast cancer cell line; test: Inhibition of HDAC in cells (Ac-H4, Ac-H3 accumulation), FIG. 2; type: cell-based; details: MDA-MB-468, FIG. 2
[5] = system: HPAC pancreatic cancer cells; test: HPAC pancreatic cancer xenograft; type: in vivo, mice; details: 120 mg/kg in 30% CAPTISOL (iv/ip) daily vs 50 mg/kg erlotinib (po); FIG. 12A
Method: (§1) A representative protocol for the in vivo experiment is as followed:
(§2) 1-10×10^6 human cancer cells were implanted subcutaneously to the athymic (nu/nu) mice. When the tumors reached about 100 mm^3 in volume, the mice were treated with the compound by tail vein infusion. Routinely 5 groups (8-12 mice per group) are needed for a typical efficacy study, including one negative control, one positive control, and three testing groups for 3 dose levels of the same compound. Usually a 7-7-5 (on-off-on) regimen was used for one typical study. The tumor size was measured with an electronic caliper and body weight measured with a scale twice weekly. The tumors were removed from euthanized mice at the end of the study. One half of each tumor was frozen in dry ice and stored at −80° C. for PK or Western blot analysis. The other half was fixed with formalin. The fixed tissues were processed, embedded in paraffin and sectioned for immunohistochemistry staining

[6] = Pharmacokinetic study in rats (plasma); type: in vivo; details: 20 and 60 mg/kg iv, hydrochloride salt in 30% CAPTISOL, FIG. 14
Method: Compound was administered via an intravenous (iv) infusion.
Rat: 20 mg/kg for 5 min i.v. infusion
Plasma samples were prepared by protein precipitation. An internal standard was added into plasma samples. […] The supernatant was then injected onto LC/MS/MS.
Samples were compared to standards made in plasma. These standards were prepared by serial dilution.

A549 NSCLC Xenograft = test: A549 NSCLC xenograft model; type: in vivo, mice; details: FIG. 11A, 11B
Method: as §1, §2

[7] = target: T1, human EGFR (His672-Ala1210) (Homo sapiens, UniProt P00533); test: HTScan EGF Receptor Kinase Assay; type: biochemical; details: for activity in EFGR enzyme assay compared with erlotinib: FIG. 1
T1 construct: human EGFR (His672-Ala1210); GST (N); purchased Cell Signaling Technologies; host or cells: baculovirus expression system
T1 sequence (P00533 672-1210): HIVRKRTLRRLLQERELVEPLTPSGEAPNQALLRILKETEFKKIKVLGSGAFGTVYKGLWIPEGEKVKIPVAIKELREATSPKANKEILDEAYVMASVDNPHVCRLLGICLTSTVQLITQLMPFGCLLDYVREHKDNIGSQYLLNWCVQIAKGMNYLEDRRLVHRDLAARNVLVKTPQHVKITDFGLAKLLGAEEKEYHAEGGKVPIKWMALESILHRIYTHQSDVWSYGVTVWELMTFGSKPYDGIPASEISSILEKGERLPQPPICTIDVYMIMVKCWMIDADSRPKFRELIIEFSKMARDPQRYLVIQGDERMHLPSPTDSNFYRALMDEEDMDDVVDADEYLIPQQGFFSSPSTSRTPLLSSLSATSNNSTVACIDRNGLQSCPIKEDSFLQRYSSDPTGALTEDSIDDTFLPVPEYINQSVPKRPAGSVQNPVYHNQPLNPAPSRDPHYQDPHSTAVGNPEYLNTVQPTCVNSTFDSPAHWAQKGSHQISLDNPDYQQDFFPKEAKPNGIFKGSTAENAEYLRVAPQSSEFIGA
Method: The ability of compounds to inhibit receptor kinase (EGFR) activity was assayed using HTSCAN™ EGF Receptor Kinase Assay Kits (Cell Signaling Technologies, Danvers, Mass.). […] The protein was purified by one-step affinity chromatography using glutathione-agarose.
Immediately transfer enzyme from −80° C. to ice. Allowed enzyme to thaw on ice. […] Returned immediately to ice. […] Incubated reaction plate at room temperature for 30 minutes. […] Added 100 μl/well primary antibody. Incubated at room temperature for 60 minutes. […] Added 100 μl/well diluted antibody. Incubated at room temperature for 30 minutes. […] Incubated at room temperature for 5 minutes.

HDAC = HDAC fluorimetric enzyme assay (Biomol AK-500, HeLa nuclear extract); type: biochemical
Method: HDAC inhibitors were screened using an HDAC fluorimetric assay kit (AK-500, Biomol, Plymouth Meeting, Pa.).
Each assay was setup as follows: Defrosted all kit components and kept on ice until use. […] Prepared dilutions of Trichostatin A (TSA, positive control) and tested compounds in assay buffer (5× of final concentration). Diluted Fluor de Lys™ Substrate in assay buffer to 100 uM (50 fold=2× final). Diluted Fluor de Lys™ developer concentrate 20-fold (e.g. 50 μl plus 950 μl Assay Buffer) in cold assay buffer. Second, diluted the 0.2 mM Trichostatin A 100-fold in the 1× Developer (e.g. 10 μl in 1 ml; final Trichostatin A concentration in the 1× Developer=2 μM; final concentration after addition to HDAC/Substrate reaction=1 μM). Added Assay buffer, diluted trichostatin A or test inhibitor to appropriate wells of the microtiter plate. Added diluted HeLa extract or other HDAC sample to all wells except for negative controls.

VEGFR = VEGFR (Homo sapiens, UniProt P35968); test: VEGFR assay (Table B); type: biochemical
Chain of VEGFR (P35968 20-1356): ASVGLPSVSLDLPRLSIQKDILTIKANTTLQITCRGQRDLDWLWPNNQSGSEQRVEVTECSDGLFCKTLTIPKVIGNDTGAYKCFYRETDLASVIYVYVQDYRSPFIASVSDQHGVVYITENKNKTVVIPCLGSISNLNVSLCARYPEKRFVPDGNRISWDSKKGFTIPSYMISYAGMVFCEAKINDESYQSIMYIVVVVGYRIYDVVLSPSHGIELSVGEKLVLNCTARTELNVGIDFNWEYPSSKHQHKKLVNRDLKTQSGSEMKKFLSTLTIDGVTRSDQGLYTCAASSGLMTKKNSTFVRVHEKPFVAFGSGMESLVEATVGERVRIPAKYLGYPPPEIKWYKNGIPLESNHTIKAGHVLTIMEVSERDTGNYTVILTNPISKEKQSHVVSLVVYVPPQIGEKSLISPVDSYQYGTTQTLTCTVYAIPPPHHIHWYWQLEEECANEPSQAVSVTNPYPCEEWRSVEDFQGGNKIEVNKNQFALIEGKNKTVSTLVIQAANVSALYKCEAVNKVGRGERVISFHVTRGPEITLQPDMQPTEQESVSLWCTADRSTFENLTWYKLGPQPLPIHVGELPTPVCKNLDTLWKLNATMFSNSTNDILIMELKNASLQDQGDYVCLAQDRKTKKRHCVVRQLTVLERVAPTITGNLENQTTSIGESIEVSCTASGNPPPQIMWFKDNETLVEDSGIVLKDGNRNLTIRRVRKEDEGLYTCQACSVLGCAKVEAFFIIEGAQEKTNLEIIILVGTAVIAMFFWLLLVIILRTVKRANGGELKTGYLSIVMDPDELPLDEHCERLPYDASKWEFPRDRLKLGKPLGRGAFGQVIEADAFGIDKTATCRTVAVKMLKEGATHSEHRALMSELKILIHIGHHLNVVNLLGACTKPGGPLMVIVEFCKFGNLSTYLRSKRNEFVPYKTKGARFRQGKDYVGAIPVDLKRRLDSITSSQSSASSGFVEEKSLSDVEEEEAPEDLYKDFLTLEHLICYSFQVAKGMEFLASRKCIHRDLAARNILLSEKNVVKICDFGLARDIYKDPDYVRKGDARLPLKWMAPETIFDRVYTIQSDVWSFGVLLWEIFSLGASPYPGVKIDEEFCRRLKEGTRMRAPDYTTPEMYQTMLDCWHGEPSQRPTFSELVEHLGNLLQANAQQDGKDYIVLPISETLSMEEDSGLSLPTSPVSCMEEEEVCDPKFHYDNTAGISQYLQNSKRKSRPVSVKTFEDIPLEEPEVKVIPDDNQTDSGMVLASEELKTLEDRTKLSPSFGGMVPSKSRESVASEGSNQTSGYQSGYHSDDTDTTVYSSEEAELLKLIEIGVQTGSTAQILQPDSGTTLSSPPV

[8] = Pharmacokinetic study in mice (plasma, lung, colon); details: salt in 30% CAPTISOL
Method: as §3, §4

C#Cc1cccc(Nc2ncnc3cc(OC)c(OCCCCCCC(=O)NOC)cc23)c1 [Compound 95, 7-(4-(3-ethynylphenylamino)-7-methoxyquinazolin-6-yloxy)-N-methoxyheptanamide]
melting point: 195.8 to 197 °C

Sodium
IV Tissue [1]: High
Chemical stability in diluted solution [2]: >12 h
Dilution with D5W [2]: >10x
Solubility [2]: 7500 µg/mL
pH ([2]; salt in 30% CAPTISOL): 10-11

C#Cc1cccc(Nc2ncnc3cc(OC)c(OCCCCCCC(=O)NO)cc23)c1 [Compound 12, 7-(4-(3-ethynylphenylamino)-7-methoxyquinazolin-6-yloxy)-N-hydroxyheptanamide]
anti-proliferative potency compared with SAHA, Erlotinib and their combination (cancer cell lines): responded better to compound 12 than a combination of erlotinib and SAHA
inhibition of EGFR phosphorylation compared with Erlotinib [3]: improvement in inhibition of histone acetylation and EGFR phosphorylation
histone acetylation (Ac-H3/Ac-H4) compared with SAHA [4]: improvement in inhibition of histone acetylation
attenuation of tumor growth [5]: greater attenuation of tumor growth than either erlotinib (po) or vehicle
dose proportionality of plasma concentration [6]: proportional to the dose
effect on tumor growth / tumor size (A549 NSCLC Xenograft): attenuated tumor growth
activity in EFGR enzyme assay compared with erlotinib [7]: more active than erlotinib and SAHA

COc1cc2ncnc(Nc3ccc(F)c(Cl)c3)c2cc1SCCCCC(=O)NO [Compound 151]
IC50 (HDAC): < 100 nM

COc1cc2ncnc(Nc3ccc(F)c(Cl)c3)c2cc1OCCCCCCC(=O)NO [Compound 6, 7-(4-(3-Chloro-4-fluorophenylamino)-7-methoxyquinazolin-6-yloxy)-N-hydroxyheptanamide]
activity in HDAC enzyme assay compared with SAHA (HDAC; FIG. 1): more active than erlotinib and SAHA
IC50 [7]: < 100 nM
activity in EFGR enzyme assay compared with erlotinib [7]: more active than erlotinib and SAHA
IC50 (VEGFR): 100 to 1000 nM

COc1cc2ncnc(Nc3ccc(F)c(Cl)c3)c2cc1SCCCCCCC(=O)NO [Compound 155]
IC50 (HDAC): < 100 nM

C#Cc1cccc(Nc2ncnc3cc(OCCOC)c(OCCOC)cc23)c1 [Erlotinib, reference compound]
effect on tumor growth / tumor size (A549 NSCLC Xenograft): did not significantly affect tumor size

Citric Acid
IV Tissue [8]: Low

COc1cc2ncnc(N[C@H](C)c3ccccc3)c2cc1OCCCCCCC(=O)NO [Compound 79, (R)—N-hydroxy-7-(7-methoxy-4-(1-phenylethylamino)quinazolin-6-yloxy)heptanamide]
IC50 (VEGFR): > 10000 nM

Tartaric Acid
IV Tissue [1]: High

COc1cc2ncnc(NCc3ccccc3)c2cc1OCCCCCCC(=O)NO [Compound 85, 7-(4-(Benzylamino)-7-methoxyquinazolin-6-yloxy)-N-hydroxyheptanamide]
IC50 [7]: < 100 nM
IC50 (VEGFR): 1000 to 10000 nM
